Experimental data taken from US20230233540A1, “COMBINATION OF ANTIBODY-DRUG CONJUGATE AND CDK9 INHIBITOR” (AstraZeneca UK Limited, priority 2020, published 2023).

Test system: HCC1954 breast cancer cells (HER2+ cell line)
Test: Antitumor test, subcutaneous HCC1954 breast cancer xenograft, tumor growth inhibition
Type: in vivo, CB17-SCID mice
Conditions: AZD4573 monotherapy in the HCC1954 model
Procedure: Tumor volume was monitored via caliper measurements, and mice were randomized based on mean tumor size. […] All AZD4573 doses were administered IP, 2 hours apart. A BID regimen was used for 10 mg/kg dose, and TID was used for 5 mg/kg dose. AZD4573 dosing was given weekly thereafter for a total of 3 cycles.
Data represents change in tumor volume over time for treatment groups.

CC(=O)N[C@@H]1CCC[C@H](C(=O)Nc2cc(-c3cnn4c3CC(C)(C)C4)c(Cl)cn2)C1 [AZD4573, (1S,3R)-3-acetamido-N-(5-chloro-4-(5,5-dimethyl-5,6-dihydro-4H-pyrrolo[1,2-b]pyrazol-3-yl)pyridin-2-yl)cyclohexanecarboxamide]
tumor growth control: minimal tumor growth control
